Source: ChEMBL document CHEMBL5634129, “Design, synthesis, and structure-activity relationships of a novel class of quinazoline derivatives as coronavirus inhibitors” (Eur J Med Chem, 2023)
pEC50: −log10 of the molar value.

How the values were obtained:
Human coronavirus OC43 = test: Antiviral activity against HCoV-OC43 infected in human NCI-H460 cells treated for 72 hrs by CPE inhibition assay; assay type: functional, organism-based; settings: Betacoronavirus 1, NCI-H460, 72 h
[1] = Cytotoxicity in human NCI-H460 cells infected with HCoV-OC43 treated for 72 hrs by CPE inhibition assay; assay type: toxicity, cell-based; settings: read-out: TC50
[2] = Selectivity index, ratio of TC50 for human NCI-H460 cells infected with HCoV-OC43 to EC50 for HCoV-OC43 infected in human NCI-H460 cells; assay type: toxicity, cell-based; settings: read-out: Selectivity Index

Row | SMILES | pEC50 (Human coronavirus OC43) | CC50 at 72 h [1] | selectivity ratio [2]
1 | CCOc1ccc2nc(NCc3ccco3)nc(Nc3cc(C(F)(F)F)cc(C(F)(F)F)c3)c2c1 | 5.92 | 10.7 µM | 9
2 | Clc1ccc(Nc2ncnc3ccc(Cl)cc23)c(Cl)c1 | < 5.13 | 15.4 µM | 
3 | COc1ccc2ncnc(Nc3cc([N+](=O)[O-])cc(C(F)(F)F)c3)c2c1 | 6.16 | 96.2 µM | 140
4 | O=[N+]([O-])c1cnc(Nc2ncnc3ccc(Cl)cc23)nc1 | < 4.18 | 139 µM | 
5 | COc1ccc2ncnc(Nc3cccc(C(F)(F)F)c3)c2c1 | 5.37 | 10.7 µM | 2.5
6 | CCOc1ccc2ncnc(Nc3cc(C(F)(F)F)cc(C(F)(F)F)c3)c2c1 | 6.16 | 219 µM | 318
7 | COc1ccc2ncnc(NNC(=O)c3cc(C(F)(F)F)cc(C(F)(F)F)c3)c2c1 | 5.77 | 289 µM | 289
8 | N#Cc1ccc(Nc2ncnc3ccc(Cl)cc23)c(Cl)c1 | < 4.65 | 46.2 µM | 
9 | COC(=O)c1cc(Nc2ncnc3ccc(OC)cc23)cc(C(=O)OC)c1 | 4.26 | 240 µM | 4.3
10 | Clc1ccc(Nc2ncnc3ccc(Cl)cc23)cc1 | < 5.13 | 12.8 µM | 
11 | Nc1ccc2ncnc(Nc3cc(C(F)(F)F)cc(C(F)(F)F)c3)c2c1 | 6.32 | 10.7 µM | 22.3
12 | N#Cc1ccc(Nc2ncnc3ccc(Cl)cc23)cc1 | < 5.13 | 28.6 µM | 
13 | CC(C)Oc1ccc2ncnc(Nc3cc(C(F)(F)F)cc(C(F)(F)F)c3)c2c1 | 4.37 | 388 µM | 9
14 | COc1cc(/C=C/c2ccc(F)cc2)c(C(=O)O)c(O)c1CC=C(C)C | 4.89 | 38.5 µM | 
15 | COc1ccc2ncnc(Nc3cc(C(F)(F)F)ccc3F)c2c1 | < 5.21 | 15.4 µM | 
16 | CCOc1ccc2nc(N3CCN(C)CC3)nc(Nc3cc(C(F)(F)F)cc(C(F)(F)F)c3)c2c1 | 6.32 | 10.7 µM | 22.3
17 | COc1ccc2ncnc(Nc3ccc(F)c(C(F)(F)F)c3)c2c1 | 5.84 | 26.7 µM | 18.7
18 | CCOc1ccc2nc(NC3CC3)nc(Nc3cc(C(F)(F)F)cc(C(F)(F)F)c3)c2c1 | 6.51 | 4.81 µM | 15.5
19 | CC/C=C/c1cc(OC)c(CC=C(C)C)c(O)c1C(=O)O | < 4.65 | 46.2 µM | 
20 | COc1ccc2ncnc(Nc3ccc(F)c(Cl)c3)c2c1 | 5.45 | 12.8 µM | 3.6
21 | CN1CCN(CCNc2ncnc3ccc(Cl)cc23)CC1 | < 4.18 | > 200 µM | 

Row | SMILES | pEC50 (Human coronavirus OC43) | CC50 at 72 h [1] | selectivity ratio [2]
22 | CCOc1ccc2nc(NCC(=O)OC(C)(C)C)nc(Nc3cc(C(F)(F)F)cc(C(F)(F)F)c3)c2c1 | 5.45 | 18.5 µM | 5.2
23 | Cc1ccc(Nc2ncnc3ccc(Cl)cc23)c(Cl)c1 | < 5.13 | 28.6 µM | 
24 | COc1ccc2ncnc(Nc3cc(Cl)cc(C(F)(F)F)c3)c2c1 | 5.84 | 129 µM | 90.4
25 | NC(=O)c1ncn([C@@H]2O[C@H](CO)[C@@H](O)[C@H]2O)n1 [RIBAVIRIN] | 4.10 | 409 µM | 5.2
26 | Clc1ccc2ncnc(Nc3ccccc3Cl)c2c1 | < 4.65 | 96.2 µM | 
27 | Cc1ccc2ncnc(Nc3cc(C(F)(F)F)cc(C(F)(F)F)c3)c2c1 | 5.92 | 96.2 µM | 80.9
28 | CCOC(=O)c1ccc(Nc2ncnc3ccc(Cl)cc23)cc1 | < 5.13 | 38.5 µM | 
29 | Clc1ccc2ncnc(NCCN3CCOCC3)c2c1 | 3.81 | > 200 µM | 
30 | COc1ccc2ncnc(Nc3cc(C#N)cc(C(F)(F)F)c3)c2c1 | 6.32 | 240 µM | 501
31 | COc1ccc2ncnc(Nc3cc(F)cc(C#N)c3)c2c1 | 4.62 | 388 µM | 16.3
32 | COc1ccc2ncnc(Nc3cccc(C#N)c3)c2c1 | < 4.26 | 388 µM | 
33 | COc1cc(/C=C/c2ccccc2)c(C(=O)O)c(O)c1CC=C(C)C | 4.65 | 38.5 µM | 
34 | CCOC(=O)c1c(/C=C/c2ccccc2)cc(OC)c(CC=C(C)C)c1O | 3.86 | > 200 µM | 
35 | COc1ccc2ncnc(Nc3cc(F)cc(F)c3)c2c1 | 4.62 | 388 µM | 16.3
36 | CCOC(=O)c1ccc(Nc2ncnc3ccc(Cl)cc23)c(Cl)c1 | < 5.13 | 32 µM | 
37 | O=[N+]([O-])c1ccc(Nc2ncnc3ccc(Cl)cc23)cc1 | < 5.13 | 46.2 µM | 
38 | CCCCNc1nc(Nc2cc(C(F)(F)F)cc(C(F)(F)F)c2)c2cc(OCC)ccc2n1 | 5.84 | 10.7 µM | 7.5
39 | COc1cc2c(Nc3cc(C(F)(F)F)cc(C(F)(F)F)c3)ncnc2cn1 | 6.55 | 6.93 µM | 24.8
40 | CCOc1ccc2nc(NC(C)CCCN(CC)CC)nc(Nc3cc(C(F)(F)F)cc(C(F)(F)F)c3)c2c1 (stereo not given) | < 5.69 | 3.56 µM | 
41 | O=[N+]([O-])c1ccc(CNc2ncnc3ccc(Cl)cc23)cc1 | 4.26 | 167 µM | 
42 | COC(=O)c1cc(C#N)cc(Nc2ncnc3ccc(OC)cc23)c1 | 5.58 | > 500 µM | > 189

Row | SMILES | pEC50 (Human coronavirus OC43) | CC50 at 72 h [1] | selectivity ratio [2]
43 | CN(C)c1ccc(Nc2ncnc3ccc(Cl)cc23)c(Cl)c1 | < 5.61 | 4.28 µM | 
44 | O=C(O)c1ccc(Nc2ncnc3ccc(Cl)cc23)c(Cl)c1 | < 4.65 | 96.2 µM | 
45 | CCOc1ccc2nc(NCc3cccs3)nc(Nc3cc(C(F)(F)F)cc(C(F)(F)F)c3)c2c1 | 5.53 | 10.7 µM | 3.6
46 | COc1ccc(Nc2ncnc3ccc(Cl)cc23)cc1 | < 5.13 | 12.8 µM | 
47 | COc1ccc2ncnc(Nc3cc(Cl)cc(C#N)c3)c2c1 | 5.00 | 240 µM | 24.1
48 | FC(F)(F)c1cc(Nc2ncnc3cccnc23)cc(C(F)(F)F)c1 | 4.49 | 240 µM | 7.5
49 | FC(F)(F)c1cc(CNc2ncnc3ccc(Cl)cc23)cc(C(F)(F)F)c1 | 5.00 | 388 µM | 
50 | FC(F)(F)c1cc(Nc2ncnc3ccc(Br)cc23)cc(C(F)(F)F)c1 | 6.46 | 2.47 µM | 7.1
51 | CCOc1ccc2nc(N3CCC(F)(F)CC3)nc(Nc3cc(C(F)(F)F)cc(C(F)(F)F)c3)c2c1 | 5.21 | 12.8 µM | 2.1
52 | Fc1cc(Nc2ncnc3ccc(Cl)cc23)cc(C(F)(F)F)c1 | 5.61 | 5.14 µM | 2.08
53 | COC(=O)c1cc(F)cc(Nc2ncnc3ccc(OC)cc23)c1 | < 4.26 | 388 µM | 
54 | Fc1ccc(Nc2ncnc3ccc(Cl)cc23)cc1 | < 5.13 | 15.4 µM | 
55 | COc1ccc2ncnc(N3CCN(c4cc(C(F)(F)F)cc(C(F)(F)F)c4)C(=O)C3)c2c1 | 5.21 | 240 µM | 
56 | CN(C)c1ccc(Nc2ncnc3ccc(Cl)cc23)cc1Cl | < 5.61 | 4.28 µM | 
57 | CCN(CC)CCCC(C)Nc1ncnc2ccc(Cl)cc12 (stereo not given) | < 3.70 | > 200 µM | 
58 | COc1ccc2ncnc(Nc3cc(C(F)(F)F)cc(C(F)(F)F)c3)c2c1 | 5.94 | 96.2 µM | 
59 | O=[N+]([O-])c1ccc(Nc2ncnc3ccc(Cl)cc23)cc1Cl | < 5.61 | 22.2 µM | 
60 | Clc1ccc2ncnc(Nc3ccc(Br)cc3)c2c1 | < 5.61 | 5.14 µM | 
61 | CCOc1ccc2nc(NC3CCCC3)nc(Nc3cc(C(F)(F)F)cc(C(F)(F)F)c3)c2c1 | < 5.21 | 12.8 µM | 
